The source of these data is publication PMC5584707, “Pro-Secretory Activity and Pharmacology in Rabbits of an Aminophenyl-1,3,5-Triazine CFTR Activator for Dry Eye Disorders” (Investigative Ophthalmology & Visual Science, 2017).

The subject of one assay is dry eye. More on the design: method as in PMID 15502479. The conditions noted are these: United States; cited from earlier work.
Assay [1] deals with ENaC. Description: Ocular surface potential difference (PD) in vivo, amiloride-sensitive sodium channel. The conditions noted are these: rabbit in vivo, amiloride 100 μM, average. Here is the method:
(§1) Open-circuit transepithelial potential difference (PD, in mV) at the ocular surface was measured continuously in anesthetized rabbits using a procedure modified from that established in mice.[8] Rabbits were intubated and anesthetized with isoflurane, and respiratory rate, blood pressure, and body temperature were monitored. For PD recording, solutions (see below) were serially perfused at 10 mL/min through PE-90 plastic tubing using a gravity multireservoir pinch-valve system (ALA Scientific, Westbury, NY, USA) and a variable-flow peristaltic pump (medium flow model; Thermo Fisher Scientific, Fair Lawn, NJ, USA). A perfusion catheter was fixed onto an adjustable stereotaxic frame with the tip immersed in solution contacting the ocular surface, as diagrammed in Figure 2A. Excess fluid was aspirated by continuous suction (low-powered wall vacuum) using 1/8-inch tubing (inner diameter 3/32 inch) placed 3 mm from the lateral canthus to maintain near-constant perfusate volume in contact with cornea, bulbar conjunctiva, and palpebral conjunctiva without fluid runoff. The measuring electrode contacted the perfusion catheter and was connected to a high-impedance voltmeter (IsoMilivolt Meter; World Precision Instruments, Sarasota, FL, USA). The reference electrode was grounded using a winged, 25-gauge needle filled with normal saline inserted subcutaneously in the abdomen. […]

The test system of assay [2] is ENaC. Put plainly: Short-circuit current in freshly isolated conjunctiva, amiloride. The note with it: ex vivo rabbit conjunctiva, 10 μM. In kind it is biochemical. Here is the method:
(§2) Short-circuit current was measured in freshly isolated rabbit conjunctiva, as described[16] with modification. Rabbits were euthanized by injection of 150 mg/kg euthasol into the marginal ear vein. The entire eyeball with eyelids intact was removed from the orbit to preserve conjunctival epithelial integrity. Within 10 minutes, a sheet of forniceal and palpebral conjunctiva was dissected, mounted onto a P2304 tissue slider (Physiologic Instruments, San Diego, CA, USA), and placed into the Ussing chamber. The apical and basolateral chambers contained (in mM): 120 NaCl, 3 KCl, 1 CaCl2, 1 MgCl2, 10 glucose, 25 NaHCO3, and 5 HEPES, pH 7.4. Solutions were bubbled with 95% O2/5% CO2 and maintained at 37°C. Hemichambers were connected to a DVC-1000 voltage clamp (World Precision Instruments Inc., Sarasota, FL, USA) via Ag/AgCl electrodes and 3 M KCl agar bridges.

In assay [3] the target is T1, CFTR in rabbit forniceal and palpebral conjunctiva (Oryctolagus cuniculus, UniProt Q00554).
T1 construct: a sheet of forniceal and palpebral conjunctiva was dissected; from tissue; host or cells: freshly isolated rabbit forniceal and palpebral conjunctiva in an Ussing chamber
T1 sequence (Q00554 whole entry): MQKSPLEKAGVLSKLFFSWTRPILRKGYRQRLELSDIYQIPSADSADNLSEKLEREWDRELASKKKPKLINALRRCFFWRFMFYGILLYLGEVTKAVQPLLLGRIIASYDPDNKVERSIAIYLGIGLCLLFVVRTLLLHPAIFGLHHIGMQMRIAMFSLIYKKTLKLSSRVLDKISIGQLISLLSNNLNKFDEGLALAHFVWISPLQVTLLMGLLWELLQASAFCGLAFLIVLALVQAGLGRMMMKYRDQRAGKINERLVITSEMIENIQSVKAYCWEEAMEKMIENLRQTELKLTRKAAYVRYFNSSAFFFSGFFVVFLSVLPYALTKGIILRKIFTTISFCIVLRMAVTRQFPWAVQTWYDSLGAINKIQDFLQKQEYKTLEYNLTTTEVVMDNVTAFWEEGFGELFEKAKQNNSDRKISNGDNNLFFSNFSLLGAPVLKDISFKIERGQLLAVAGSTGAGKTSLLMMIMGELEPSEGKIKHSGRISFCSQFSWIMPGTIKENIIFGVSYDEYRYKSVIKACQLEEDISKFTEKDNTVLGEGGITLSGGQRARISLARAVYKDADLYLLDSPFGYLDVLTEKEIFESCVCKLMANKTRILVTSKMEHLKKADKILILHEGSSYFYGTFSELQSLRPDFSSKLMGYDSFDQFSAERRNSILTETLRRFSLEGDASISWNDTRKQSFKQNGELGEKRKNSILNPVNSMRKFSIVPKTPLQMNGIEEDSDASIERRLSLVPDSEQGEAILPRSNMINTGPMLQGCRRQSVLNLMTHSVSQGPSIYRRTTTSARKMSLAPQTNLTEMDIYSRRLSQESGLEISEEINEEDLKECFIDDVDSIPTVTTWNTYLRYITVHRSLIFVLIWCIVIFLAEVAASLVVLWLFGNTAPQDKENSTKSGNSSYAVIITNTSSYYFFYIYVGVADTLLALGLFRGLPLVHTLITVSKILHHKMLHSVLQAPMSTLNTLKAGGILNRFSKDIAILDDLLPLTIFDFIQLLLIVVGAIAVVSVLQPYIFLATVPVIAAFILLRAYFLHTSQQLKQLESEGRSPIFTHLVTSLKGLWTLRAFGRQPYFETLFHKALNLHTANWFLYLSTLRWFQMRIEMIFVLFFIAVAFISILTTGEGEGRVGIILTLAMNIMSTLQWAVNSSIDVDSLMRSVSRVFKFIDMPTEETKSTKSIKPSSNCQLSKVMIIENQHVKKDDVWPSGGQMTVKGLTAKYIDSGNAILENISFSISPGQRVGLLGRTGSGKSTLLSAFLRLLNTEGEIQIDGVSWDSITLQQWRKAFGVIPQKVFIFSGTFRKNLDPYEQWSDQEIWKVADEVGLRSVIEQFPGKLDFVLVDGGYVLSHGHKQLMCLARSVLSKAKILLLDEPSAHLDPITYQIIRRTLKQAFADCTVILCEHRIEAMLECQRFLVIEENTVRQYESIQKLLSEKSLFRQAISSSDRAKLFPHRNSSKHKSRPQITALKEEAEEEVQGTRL
Description: Short-circuit current in freshly isolated conjunctiva, CFTR. In kind it is biochemical. The conditions noted are these: ex vivo rabbit conjunctiva. Here is the method: as §2, with “Solutions were bubbled with 95% O2/5% CO2 and maintained at 37°C.” left out

In assay [4] the target is T2, CFTR chloride conductance at the rabbit ocular surface (Oryctolagus cuniculus, UniProt Q00554).
T2 construct: from tissue; host or cells: ocular surface (cornea, bulbar and palpebral conjunctiva) of living anesthetized rabbits
T2 sequence (Q00554 whole entry): as above
Put plainly: Ocular surface potential difference (PD) in vivo, CFTR. Here is the method: as §1

The test system of a further assay is human wildtype CFTR. The note with it: cell cultures, cited from earlier work.
Assay [5] concerns lacrimal gland ablation models in mice. More on the design: method as in PMID 26842854. The note with it: cited from earlier work.
The next assay deals with tear volume in mice. The note with it: delivered topically; cited from earlier work.

As a reminder, the EC50 is the midpoint of the concentration-response curve.

As to `O=c1ccn([C@@H]2O[C@H](COP(=O)(O)OP(=O)(O)OP(=O)(O)OP(=O)(O)OC[C@H]3O[C@@H](n4ccc(=O)[nH]c4=O)[C@H](O)[C@@H]3O)[C@@H](O)[C@H]2O)c(=O)[nH]1` [diquafosol], the “Efficacy in phase III trials” value with dry eye is listed as “did not show efficacy”.

As to `N=C(N)NC(=O)c1nc(Cl)c(N)nc1N` [amiloride], the “Depolarization of ocular surface PD” value in the assay on ENaC [1] is given as approximately 5 mV. For the same compound, the entries for the “Effect on short-circuit current” value in the assay with ENaC [2] and in the assay with ENaC [2] (listed as Amiloride) were “no amiloride effect” and “no effect”, respectively.

As for CFTRinh-172, in assay [3] (CFTR inhibitor added last), the “Effect on increases in short-circuit current” value is on record as “inhibited”. Besides, in assay [4] (CFTRinh-172 10 μM in final perfusion solution), the “Reversal of PD changes” value was “largely reversed”.

With `CCN(CC)c1nc(Nc2ccccc2)nc(OC(C(F)(F)F)C(F)(F)F)n1` [CFTRact-K089], the “Extent of CFTR activation” value in the assay with human wildtype CFTR was “fully activated CFTR”. Also, the EC50 in the assay with human wildtype CFTR (read-out: EC50 of CFTR activation) is approximately 250 nM. For the same compound, the “Effect on pathology when administered after development of dry eye” value in assay [5] is reported as “reversed pathology”. Besides, in assay [5] (three times daily), the “Effect on corneal epithelial disruption” value is “prevented corneal epithelial disruption” and the “Effect on tear volume” value is given as “normalized tear volume”. Besides, in the assay with tear volume in mice, the “Duration of increase in tear volume” value is 4 h and the “Effect on tear volume” value was “doubled tear volume”.

Turning to `C=C[C@@]1(C)CC(=O)[C@]2(O)[C@@]3(C)[C@@H](O)CCC(C)(C)[C@@H]3[C@H](O)[C@H](OC(C)=O)[C@@]2(C)O1` [forskolin], the “CFTR activation (short-circuit current)” value in assay [3] (high concentration) was “Maximal CFTR activation”. Further, the “Change in short-circuit current” value in assay [3] (low concentration 25 nM) is “small increase in current”. Besides, in assay [4] (forskolin 20 μM after 10 μM CFTRact-K267), the “Further change in ocular surface PD on top of CFTRact-K267” value is reported as “minimally further increased”.
